Test results as given in patent US20100216747A1, “PREVENTIVE AGENT OR THERAPEUTIC AGENT FOR DISEASE CAUSED BY ABNORMAL BONE METABOLISM” (TEIJIN PHARMA LIMITED, priority 2007, published 2010).
Like-named read-outs stand apart in the source and are kept apart here.

Assays:
[1] = tested on: osteoclast-like cells formed from mouse bone marrow-derived cells; test: Bone resorption activity of osteoclast-like cells on ivory section (type I collagen cross-linked C-telopeptide in medium, ELISA); type: cell-based; details: Example 4 experiment: Compound A 10^−7 M, risedronic acid 10^−8 M, alone or simultaneously, 9 days on ivory section, vs Comparative Example 4-1, 3 to 4 wells
Description: Multinuclear osteoclast-like cells were formed from mouse bone marrow-derived cells by collecting bone marrows of the femur and the tibia from a mouse, removing erythrocytes according to the ordinary method, plating the residual components in a 96-well plate containing an ivory section at the density of 4×10^5 cells/well, culturing the cells overnight, then adding a medium containing 1α,25-dihydroxy vitamin D3 (referred to as 1α,25(OH)2D3 hereinbelow) in order to be at 10^−9 M, and culturing the cells in the presence of 1α,25(OH)2D3 for 9 days. An αMEM medium containing 10% fetal calf serum (referred to as 10% FCS-αMEM hereinbelow) was used as a medium. When 1α,25(OH)2D3 was added to the mouse bone marrow-derived cells, each of a solvent alone (Comparative Example 4-1), N-hydroxy-4-{5-[4-(5-isopropyl-2-methyl-1,3-thiazol-4-yl)phenoxy]pentoxy}-benzamidine (described as Compound A in Table 4) alone (Comparative Example 4-2), risedronic acid alone (Comparative Example 4-3), and N-hydroxy-4-{5-[4-(5-isopropyl-2-methyl-1,3-thiazol-4-yl)phenoxy]pentoxy}-benzamidine (described as Compound A in Table 4) and risedronic acid (Example 4) were simultaneously added to the mouse bone marrow-derived cell culture system, and the effects on formation of osteoclast-like cells were evaluated. The following groups were set for the experiment.
For addition of N-hydroxy-4-{5-[4-(5-isopropyl-2-methyl-1,3-thiazol-4-yl)phenoxy]pentoxy}-benzamidine (Compound A), in both the Comparative Examples and Example, N-hydroxy-4-{5-[4-(5-isopropyl-2-methyl-1,3-thiazol-4-yl)phenoxy]pentoxy}-benzamidine (Compound A) was dissolved in dimethylsulfoxide (DMSO) at a concentration of 10^−4 M, and the resultant solution was added to the medium to make 10^−7 M at a 1000-fold dilution. […]
Both in Comparative Examples and Example, the culture medium was collected 9 days after the start of culture, and the quantity of type I collagen cross-linked C-telopeptide in the medium was measured. […]

[2] = tested on: osteoclast-like cells formed from mouse bone marrow-derived cells; test: Formation of osteoclast-like cells (TRAP-positive multinuclear cells) from mouse bone marrow-derived cells cultured with 1α,25(OH)2D3; type: cell-based; details: alone or simultaneously, 7 days; for number of osteoclast-like cells formed, taking Comparative Example 1-1 as 100%: Example 1 experiment (FIG. 1): Compound A 10^−7 M; for number of osteoclast-like cells formed, taking Comparative Example 1-1 as 100% / number of osteoclast-like cells formed, taking Comparative Example 2-1 as 100%: 3 wells; for number of osteoclast-like cells formed, taking Comparative Example 2-1 as 100%: Example 2 experiment (FIG. 2): Compound A 10^−6 M; for number of osteoclast-like cells formed, taking Comparative Example 3-1 as 100%: Example 3 experiment (FIG. 3): Compound A 10^−7 M, 4 to 5 wells
Description: Multinuclear osteoclast-like cells were formed from mouse bone marrow-derived cells by collecting bone marrows of the femur and the tibia from a mouse, removing erythrocytes according to the ordinary method, plating the residual components in a 96-well plate at the density of 4×10^5cells/well, culturing the cells overnight, then adding a medium containing 1α,25-dihydroxy vitamin D3 (referred to as 1═,25(OH)2D3 hereinbelow) in order to be at 10^−9M, and culturing the cells in the presence of 1α,25(OH)2D3 for 7 days. An αMEM medium containing 10% fetal calf serum (referred to as 10% FCS-αMEM hereinbelow) was used as a medium. When 1α,25(OH)2D3 was added to the mouse bone marrow-derived cells, each of a solvent alone (Comparative Example 1-1), N-hydroxy-4-{5-[4-(5-isopropyl-2-methyl-1,3-thiazol-4-yl)phenoxy]pentoxy}-benzamidine (described as Compound A in Figure) alone (Comparative Example 1-2), risedronic acid alone (Comparative Example 1-3), and N-hydroxy-4-{5-[4-(5-isopropyl-2-methyl-1,3-thiazol-4-yl)phenoxy]pentoxy}-benzamidine (described as Compound A in Figure) and risedronic acid simultaneously (Example 1) were added to the mouse bone marrow-derived cell culture system, and the effects on formation of osteoclast-like cells were evaluated. The following groups were set for the experiment.
For addition of N-hydroxy-4-{5-[4-(5-isopropyl-2-methyl-1,3-thiazol-4-yl)phenoxy]pentoxy}-benzamidine (Compound A), in both the Comparative Examples and Example, N-hydroxy-4-{5-[4-(5-isopropyl-2-methyl-1,3-thiazol-4-yl)phenoxy]pentoxy}-benzamidine (Compound A) was dissolved in dimethylsulfoxide (DMSO) at a concentration of 10^−4 M, and the resultant solution was added to the medium to make 10^−7 M at a 1000-fold dilution. For addition of risedronic acid, in both the Comparative Examples and Example, sodium risedronate hydrate was dissolved in phosphate buffered saline (PBS) at a concentration of […], and the resultant solution was added to the medium to make 3×10^−7 M at a 1000-fold dilution. On the third day after addition of the test compound(s) of the respective conditions, the medium was replaced with fresh 10% FCS-αMEM containing the test compound(s) of the respective conditions in both the Comparative Examples and Example.
In both the Comparative Examples and Example, on the 7th day after the start of culture, the medium was removed, the cells were fixed with phosphate buffered formalin and stained by tartrate-resistant acid phosphatase (abbreviated as TRAP hereinbelow), an osteoclast marker, using Sigma Acid Phosphatase, Leukocyte (TRAP) kit (Sigma, No. 386A), and the number of TRAP-positive multinuclear cells having 6 or more cell nuclei was counted as osteoclast-like cells under an optical microscope.
The experiment was conducted in a similar manner to that described in Example 1, except that the concentration of N-hydroxy-4-{5-[4-(5-isopropyl-2-methyl-1,3-thiazol-4-yl)phenoxy]pentoxy}-benzamidine in the medium was set at 10^−6M, and the following groups were set.
The experiment was conducted in a similar manner to that described in Example 1, except that clodronic acid at a concentration of 10^−5 M was allowed to act on the cells in place of risedronic acid at a concentration of 3×10^−7 M in the Comparative Examples and Example, and the following groups were set.

[3] = Mus musculus, Osteoclast-like, 216 h, read-out: Bone resorption inhibitory rate (%)
[4] = Mus musculus, Osteoclast-like, 168 h, Example 1 experiment: Compound A 10^−7 M, risedronic acid 3×10^−7 M, vs Comparative Example 1-1, read-out: Osteoclast-like cell formation inhibition rate (%)
[5] = Mus musculus, Osteoclast-like, 168 h, Example 2 experiment: Compound A 10^−6 M, risedronic acid 3×10^−7 M, vs Comparative Example 2-1, read-out: Osteoclast-like cell formation inhibition rate (%)
[6] = Mus musculus, Osteoclast-like, 168 h, Example 3 experiment: Compound A 10^−7 M, clodronic acid 10^−5 M, vs Comparative Example 3-1, read-out: Osteoclast-like cell formation inhibition rate (%)

SMILES | Bone resorption inhibitory rate (%) ([1]; listed as Comparative Example 4-3) | inhibition at 0.01 µM [1, 3] [%] | number of osteoclast-like cells formed, taking Comparative Example 1-1 as 100% ([2]; risedronic acid 3×10^−7 M) [%] | number of osteoclast-like cells formed, taking Comparative Example 2-1 as 100% ([2]; risedronic acid 3×10^−7 M) [%] | inhibition at 0.3 µM [2, 4] [%] | inhibition at 0.3 µM [2, 5] [%] | inhibition at 0.1 µM [1, 3] [%] | number of osteoclast-like cells formed, taking Comparative Example 3-1 as 100% ([2]; clodronic acid 10^−5 M) [%] | inhibition at 0.1 µM [2, 4] [%] | inhibition at 1 µM [2, 5] [%] | inhibition at 0.1 µM [2, 6] [%] | inhibition at 10 µM [2, 6] [%]
O=P(O)(O)C(O)(Cc1cccnc1)P(=O)(O)O [risedronic acid] | 18.3 | 18.3 | 88.1 | 88.1 | 11.9 | 11.9 |  |  |  |  |  | 
Cc1nc(-c2ccc(OCCCCCOc3ccc(/C(N)=N/O)cc3)cc2)c(C(C)C)s1 [Compound A, N-hydroxy-4-{5-[4-(5-isopropyl-2-methyl-1,3-thiazol-4-yl)phenoxy]pentoxy}-benzamidine] |  |  | 81.3 | 50 |  |  | 13.9 | 95.2 | 18.7 | 50 | 4.8 | 
O=P(O)(O)C(Cl)(Cl)P(=O)(O)O [clodronic acid] |  |  |  |  |  |  |  | 93.9 |  |  |  | 6.1
